# Assays:
# [1] = Dissolution kinetics of solid glucagon tablets; type: physicochemical; conditions: pH 7.4 PBS, 37° C.
# Source text: Many of the top hits in the excipient screening (e.g., benzoic acid and sodium carbonate) promote glucagon dissolution by altering solution pH. Unlike many other successful excipients, the zwitterionic compound MSB can enhance glucagon dissolution in PBS without altering solution pH.
# The excipients were cryo-milled and sieved to a particle size of 63-120 μm (230-120 mesh) before being combined with lyophilized glucagon powder. Solid glucagon formulations were manufactured by tablet compaction of the drug-excipient mixture (1 mm diameter die, 400 N compaction force) using an RD10A Natoli Tablet press. Magnesium stearate, a common lubricant used in tableting, was excluded from this process. The solid formulations were stored at 4° C. until use.
# The dissolution kinetics of the solid formulations were assessed by incubating the solid glucagon formulations in 2 mL of pH 7.4 PBS, stored at 37° C. on an orbital shaker. At predetermined timepoints, 200 μL of supernatant was removed for HPLC analysis and an equivalent volume of release medium was replaced. The samples were diluted with equal parts of acetonitrile and analyzed using RP-HPLC.
# [2] = High throughput screening of water-soluble solid excipients for glucagon dissolution; type: physicochemical; conditions: for Fold change vs. PBS Avg.: 30-minute incubation in pH 7.4 PBS containing 1 mg/mL excipient; for Fold change vs. PBS Avg. / Glucagon concentration Avg.: 37° C.; for Glucagon concentration Avg.: solubilized glucagon after 30-minute incubation of lyophilized glucagon in pH 7.4 PBS containing 1 mg/mL excipient; for enhancement of glucagon dissolution (statistical significance compared to no excipient): 30-minute incubation in pH 7.4 PBS at 37° C.
compound,measurement,setting,value
glucagon [unformulated glucagon],dissolution of solid glucagon formulation in neutral pH buffer,[1],remained largely insoluble
NC(=O)C[C@H](N)C(=O)O.O [Asparagine monohydrate],Fold change vs. PBS Avg.,[2],1.55 fold
same,Glucagon concentration Avg.,[2],0.33 mg/mL
NC(=O)CC[C@H](N)C(=O)O [L-Glutamine],enhancement of glucagon dissolution (statistical significance compared to no excipient),[2],successfully enhanced the dissolution of glucagon
same,Fold change vs. PBS Avg.,[2],3.87 fold
same,Glucagon concentration Avg.,[2],0.83 mg/mL
OC[C@@H](O)[C@@H](O)[C@H](O)[C@H](O)CO [Mannitol],Fold change vs. PBS Avg.,[2],2.49 fold
same,Glucagon concentration Avg.,[2],0.54 mg/mL
OCCN(CCO)C(CO)(CO)CO [BIS-TRIS],Fold change vs. PBS Avg.,[2],1.67 fold
same,Glucagon concentration Avg.,[2],0.36 mg/mL
O=C(CO)[C@@H](O)[C@H](O)[C@H](O)CO [D-(−)-Fructose],Fold change vs. PBS Avg.,[2],1.09 fold
same,Glucagon concentration Avg.,[2],0.23 mg/mL
O=C1NS(=O)(=O)c2ccccc21.[Na] [Saccharin Sodium],Fold change vs. PBS Avg.,[2],1.21 fold
same,Glucagon concentration Avg.,[2],0.26 mg/mL
O=C([O-])c1ccccc1O.[Na+] [Sodium Salicylate],Fold change vs. PBS Avg.,[2],1.84 fold
same,Glucagon concentration Avg.,[2],0.40 mg/mL
NC(CO)(CO)CO [Tris base],Fold change vs. PBS Avg.,[2],2.50 fold
same,Glucagon concentration Avg.,[2],0.54 mg/mL
CNC[C@H](O)[C@@H](O)[C@H](O)[C@H](O)CO [Meglumine],Glucagon concentration Avg.,[2],1.32 mg/mL
CCCCCCCCCCCCCC[N+](C)(C)CCCS(=O)(=O)[O-] [Myristyl sulfobetaine],enhancement of glucagon dissolution (statistical significance compared to no excipient),[2],successfully enhanced the dissolution of glucagon
same,Fold change vs. PBS Avg.,[2],5.33 fold
same,enhancement of solution glucagon concentration compared to unformulated glucagon,[2]; pH 7.4 PBS,up to 500%
same,Glucagon concentration Avg.,[2],1.15 mg/mL
Nc1nc2ncc(CNc3ccc(C(=O)N[C@@H](CCC(=O)O)C(=O)O)cc3)nc2c(=O)[nH]1 [Folic acid],Fold change vs. PBS Avg.,[2],1.98 fold
same,Glucagon concentration Avg.,[2],0.43 mg/mL
CCCCCCCCCCCCOP(=O)([O-])OCC[N+](C)(C)C [Dodecylphosphocholine],enhancement of glucagon dissolution (statistical significance compared to no excipient),[2],successfully enhanced the dissolution of glucagon
same,Fold change vs. PBS Avg.,[2],4.37 fold
same,Glucagon concentration Avg.,[2],0.94 mg/mL
O=S(=O)(O)CCNC(CO)(CO)CO [TES],Fold change vs. PBS Avg.,[2],1.75 fold
same,Glucagon concentration Avg.,[2],0.38 mg/mL
CCCCCCCCCCCC[N+](C)(C)CCCS(=O)(=O)O [Lauryl sulfobetaine],Fold change vs. PBS Avg.,[2],0.52 fold
same,Glucagon concentration Avg.,[2],0.11 mg/mL
CC(O)COC[C@H]1O[C@@H]2O[C@H]3[C@H](O)[C@@H](O)[C@@H](O[C@H]4[C@H](O)[C@@H](O)[C@@H](O[C@H]5[C@H](O)[C@@H](O)[C@@H](O[C@H]6[C@H](O)[C@@H](O)[C@@H](O[C@H]7[C@H](O)[C@@H](O)[C@@H](O[C@H]8[C@H](O)[C@@H](O)[C@@H](O[C@H]1[C@H](O)[C@H]2O)O[C@@H]8COCC(C)O)O[C@@H]7COCC(C)O)O[C@@H]6COCC(C)O)O[C@@H]5COCC(C)O)O[C@@H]4COCC(C)O)O[C@@H]3COCC(C)O (some centres unmarked) [Hydroxypropyl Betadex],Fold change vs. PBS Avg.,[2],1.74 fold
same,Glucagon concentration Avg.,[2],0.37 mg/mL
C[N+](C)(C)CC(=O)O [Betaine],Fold change vs. PBS Avg.,[2],1.11 fold
same,Glucagon concentration Avg.,[2],0.24 mg/mL
CC(C)C[C@H](N)C(=O)O [L-leucine],Fold change vs. PBS Avg.,[2],1.32 fold
same,Glucagon concentration Avg.,[2],0.28 mg/mL
CSCC[C@H](N)C(=O)O [Methionine],Fold change vs. PBS Avg.,[2],1.81 fold
same,Glucagon concentration Avg.,[2],0.39 mg/mL
O=S(=O)(O)CC(O)CN(CCO)CCO (centres unmarked) [DIPSO],Fold change vs. PBS Avg.,[2],1.28 fold
same,Glucagon concentration Avg.,[2],0.28 mg/mL
Betadex Sulfobutyl Ether Sodium,Fold change vs. PBS Avg.,[2],1.56 fold
same,Glucagon concentration Avg.,[2],0.34 mg/mL
O=C(O)CC(O)C(=O)O (centres unmarked) [Malic Acid],Fold change vs. PBS Avg.,[2],0.35 fold
same,Glucagon concentration Avg.,[2],0.08 mg/mL
NCCC(=O)O [Beta-Alanine],Fold change vs. PBS Avg.,[2],1.34 fold
same,Glucagon concentration Avg.,[2],0.29 mg/mL
O=S(=O)(O)CC(O)CN1CCOCC1 (centres unmarked) [MOPSO],Fold change vs. PBS Avg.,[2],1.37 fold
same,Glucagon concentration Avg.,[2],0.29 mg/mL
Cl.N[C@@H](CS)C(=O)O [L-Cysteine hydrochloride],Fold change vs. PBS Avg.,[2],0.93 fold
same,Glucagon concentration Avg.,[2],0.20 mg/mL
O=C(O)C(S)C(S)C(=O)O (centres unmarked) [Dimercaptosuccinic acid],Fold change vs. PBS Avg.,[2],2.38 fold
same,Glucagon concentration Avg.,[2],0.51 mg/mL
N[C@@H](Cc1c[nH]cn1)C(=O)O [L-histidine],Fold change vs. PBS Avg.,[2],2.57 fold
same,Fold change vs. PBS Avg.,[2]; listed as L-Histidine,1.41 fold
same,Glucagon concentration Avg.,[2],0.55 mg/mL
same,Glucagon concentration Avg.,[2]; listed as L-Histidine,0.30 mg/mL
OC[C@H]1O[C@@H]2O[C@H]3[C@H](O)[C@@H](O)[C@@H](O[C@H]4[C@H](O)[C@@H](O)[C@@H](O[C@H]5[C@H](O)[C@@H](O)[C@@H](O[C@H]6[C@H](O)[C@@H](O)[C@@H](O[C@H]7[C@H](O)[C@@H](O)[C@@H](O[C@H]1[C@H](O)[C@H]2O)O[C@@H]7CO)O[C@@H]6CO)O[C@@H]5CO)O[C@@H]4CO)O[C@@H]3CO [Alpha cyclodextrin],Fold change vs. PBS Avg.,[2],0.55 fold
same,Glucagon concentration Avg.,[2],0.12 mg/mL
NCCS(=O)(=O)O [Taurine],Fold change vs. PBS Avg.,[2],1.11 fold
same,Glucagon concentration Avg.,[2],0.24 mg/mL
OC[C@H]1O[C@@](CO)(O[C@H]2O[C@H](CO)[C@@H](O)[C@H](O)[C@H]2O)[C@@H](O)[C@@H]1O [Sucrose],Fold change vs. PBS Avg.,[2],1.32 fold
same,Glucagon concentration Avg.,[2],0.28 mg/mL
O=C([O-])[C@H](O)[C@@H](O)[C@H](O)[C@H](O)CO.[K+] [Potassium Gluconate],Fold change vs. PBS Avg.,[2],1.61 fold
same,Glucagon concentration Avg.,[2],0.35 mg/mL
NC(=O)CN(CC(=O)O)CC(=O)O [ADA],Fold change vs. PBS Avg.,[2],0.26 fold
same,Glucagon concentration Avg.,[2],0.06 mg/mL
O=C(O)CN(CCOCCOCCN(CC(=O)O)CC(=O)O)CC(=O)O [EGTA],Fold change vs. PBS Avg.,[2],3.11 fold
same,Glucagon concentration Avg.,[2],0.67 mg/mL
OC[C@H]1O[C@H](O[C@H]2O[C@H](CO)[C@@H](O)[C@H](O)[C@H]2O)[C@H](O)[C@@H](O)[C@@H]1O [D-(+)-Trehalose],Fold change vs. PBS Avg.,[2],1.55 fold
same,Glucagon concentration Avg.,[2],0.33 mg/mL
O=S([O-])S(=O)[O-].[Na+].[Na+] [Sodium Dithionite],Fold change vs. PBS Avg.,[2],2.25 fold
same,Glucagon concentration Avg.,[2],0.49 mg/mL
CC[C@H](C)[C@H](N)C(=O)O [Isoleucine],Fold change vs. PBS Avg.,[2],1.88 fold
same,Glucagon concentration Avg.,[2],0.41 mg/mL
O=S([O-])S(=O)(=O)[O-].[K+].[K+] [Potassium Metabisulfite],Fold change vs. PBS Avg.,[2],2.13 fold
same,Glucagon concentration Avg.,[2],0.46 mg/mL
N[C@@H](Cc1ccccc1)C(=O)O [L-Phenylalanine],Fold change vs. PBS Avg.,[2],1.66 fold
same,Glucagon concentration Avg.,[2],0.36 mg/mL
O=C(OC[C@H]1O[C@@H](OC(=O)c2cc(O)c(O)c(OC(=O)c3cc(O)c(O)c(O)c3)c2)[C@H](OC(=O)c2cc(O)c(O)c(OC(=O)c3cc(O)c(O)c(O)c3)c2)[C@@H](OC(=O)c2cc(O)c(O)c(OC(=O)c3cc(O)c(O)c(O)c3)c2)[C@@H]1OC(=O)c1cc(O)c(O)c(OC(=O)c2cc(O)c(O)c(O)c2)c1)c1cc(O)c(O)c(OC(=O)c2cc(O)c(O)c(O)c2)c1 [Tannic Acid],Fold change vs. PBS Avg.,[2],0.08 fold
same,Glucagon concentration Avg.,[2],0.02 mg/mL
OC[C@@H](O)[C@@H](O)[C@H](O)[C@@H](O)CO [D-Sorbitol],Fold change vs. PBS Avg.,[2],1.16 fold
same,Glucagon concentration Avg.,[2],0.25 mg/mL
Sodium deoxycholate,Fold change vs. PBS Avg.,[2],1.75 fold
same,Glucagon concentration Avg.,[2],0.38 mg/mL
O=C[C@H](O)[C@@H](O)[C@H](O)[C@H](O)CO [D-glucose],Fold change vs. PBS Avg.,[2],1.08 fold
same,Glucagon concentration Avg.,[2],0.23 mg/mL
O=C[C@H](O)[C@@H](O)[C@@H](O)CO [L-(+)-Arabinose],Fold change vs. PBS Avg.,[2],1.52 fold
same,Glucagon concentration Avg.,[2],0.33 mg/mL
O=S(=O)(O)CCCN1CCN(CCO)CC1 [EPPS],Fold change vs. PBS Avg.,[2],0.79 fold
same,Glucagon concentration Avg.,[2],0.17 mg/mL

# Reference: patent publication US20250025411A1, “READILY SOLUBLE AND THERMOSTABLE GLUCAGON FORMULATIONS AND DELIVERY FOR MINI-DOSING AND CLOSED -LOOP PROPHYLACTIC TREATMENT OF HYPOGLYCEMIA” (Massachusetts Institute of Technology, priority 2023, published 2025)
